Experiments:
Parameters in all cases: scale not given: the % may be the effect or the level left
[1] = molecular target: T1, Serine/threonine-protein kinase NLK (Homo sapiens) (UniProt Q9UBE8); test: Inhibition of human NLK assessed as enzyme activity at 1 uM using myelin basic protein as substrate preincubated for 20 mins followed by [gamma-33P]-ATP addition and measured after 120 mins by radiometric Hot-SpotSM Kinase assay relative to control
T1 sequence (whole entry): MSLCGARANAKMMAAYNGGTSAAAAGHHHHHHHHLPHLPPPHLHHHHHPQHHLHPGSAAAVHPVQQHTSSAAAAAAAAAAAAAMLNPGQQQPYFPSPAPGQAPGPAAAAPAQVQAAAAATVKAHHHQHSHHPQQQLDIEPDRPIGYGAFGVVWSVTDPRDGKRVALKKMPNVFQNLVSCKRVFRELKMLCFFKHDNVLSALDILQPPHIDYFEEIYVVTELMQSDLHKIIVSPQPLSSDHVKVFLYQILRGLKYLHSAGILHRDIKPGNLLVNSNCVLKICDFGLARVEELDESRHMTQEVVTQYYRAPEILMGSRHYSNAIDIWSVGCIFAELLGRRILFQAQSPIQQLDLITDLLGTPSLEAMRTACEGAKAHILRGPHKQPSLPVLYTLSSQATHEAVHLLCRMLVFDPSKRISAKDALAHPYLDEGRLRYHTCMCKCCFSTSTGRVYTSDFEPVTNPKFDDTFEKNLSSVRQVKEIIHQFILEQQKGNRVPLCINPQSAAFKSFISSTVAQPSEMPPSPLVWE

[2] = molecular target: T2, Mitogen-activated protein kinase kinase kinase 6 (Homo sapiens) (UniProt O95382); test: Inhibition of human MEKK6 assessed as enzyme activity at 1 uM using myelin basic protein as substrate preincubated for 20 mins followed by [gamma-33P]-ATP addition and measured after 120 mins by radiometric Hot-SpotSM Kinase assay relative to control
T2 sequence (whole entry): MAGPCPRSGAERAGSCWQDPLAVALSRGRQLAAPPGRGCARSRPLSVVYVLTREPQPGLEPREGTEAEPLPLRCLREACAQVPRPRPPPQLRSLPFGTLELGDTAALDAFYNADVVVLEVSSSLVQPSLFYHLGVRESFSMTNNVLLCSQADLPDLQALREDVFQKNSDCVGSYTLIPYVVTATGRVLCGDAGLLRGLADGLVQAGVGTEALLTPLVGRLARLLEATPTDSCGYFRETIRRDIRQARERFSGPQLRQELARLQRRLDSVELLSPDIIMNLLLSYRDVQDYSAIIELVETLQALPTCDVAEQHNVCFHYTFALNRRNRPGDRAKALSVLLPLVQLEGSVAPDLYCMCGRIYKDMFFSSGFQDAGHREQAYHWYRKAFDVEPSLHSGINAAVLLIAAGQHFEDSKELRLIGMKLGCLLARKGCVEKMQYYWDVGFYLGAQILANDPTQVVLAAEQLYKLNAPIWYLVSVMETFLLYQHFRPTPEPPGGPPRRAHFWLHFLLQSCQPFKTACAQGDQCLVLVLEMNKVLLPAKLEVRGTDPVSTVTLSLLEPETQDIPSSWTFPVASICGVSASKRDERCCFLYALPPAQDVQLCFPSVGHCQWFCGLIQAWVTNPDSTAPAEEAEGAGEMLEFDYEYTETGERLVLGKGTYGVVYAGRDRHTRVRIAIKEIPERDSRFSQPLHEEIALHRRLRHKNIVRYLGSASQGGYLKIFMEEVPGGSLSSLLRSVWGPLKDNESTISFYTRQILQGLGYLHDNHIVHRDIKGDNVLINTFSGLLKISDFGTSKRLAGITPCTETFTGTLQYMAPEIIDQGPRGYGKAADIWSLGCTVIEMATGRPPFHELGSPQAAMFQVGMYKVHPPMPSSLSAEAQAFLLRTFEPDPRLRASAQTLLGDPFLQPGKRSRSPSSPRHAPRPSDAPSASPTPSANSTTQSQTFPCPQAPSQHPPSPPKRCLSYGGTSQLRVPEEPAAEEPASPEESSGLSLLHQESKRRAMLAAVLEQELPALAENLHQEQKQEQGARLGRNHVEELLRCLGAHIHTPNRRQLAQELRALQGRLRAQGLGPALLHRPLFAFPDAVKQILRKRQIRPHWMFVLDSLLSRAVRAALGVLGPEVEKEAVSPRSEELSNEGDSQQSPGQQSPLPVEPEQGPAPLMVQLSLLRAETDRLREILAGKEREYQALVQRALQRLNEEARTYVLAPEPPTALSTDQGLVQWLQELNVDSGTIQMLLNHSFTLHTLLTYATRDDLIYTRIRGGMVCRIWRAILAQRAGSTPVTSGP

[3] = molecular target: Casein kinase I isoform epsilon (Homo sapiens, UniProt P49674); test: Inhibition of human CK1epsilon assessed as enzyme activity at 1 uM using KRRRAL[pS]VASLPGL as substrate preincubated for 20 mins followed by [gamma-33P]-ATP addition and measured after 120 mins by radiometric Hot-SpotSM Kinase assay relative to control
Sequence of Casein kinase I isoform epsilon (P49674 whole entry, looked up, canonical isoform): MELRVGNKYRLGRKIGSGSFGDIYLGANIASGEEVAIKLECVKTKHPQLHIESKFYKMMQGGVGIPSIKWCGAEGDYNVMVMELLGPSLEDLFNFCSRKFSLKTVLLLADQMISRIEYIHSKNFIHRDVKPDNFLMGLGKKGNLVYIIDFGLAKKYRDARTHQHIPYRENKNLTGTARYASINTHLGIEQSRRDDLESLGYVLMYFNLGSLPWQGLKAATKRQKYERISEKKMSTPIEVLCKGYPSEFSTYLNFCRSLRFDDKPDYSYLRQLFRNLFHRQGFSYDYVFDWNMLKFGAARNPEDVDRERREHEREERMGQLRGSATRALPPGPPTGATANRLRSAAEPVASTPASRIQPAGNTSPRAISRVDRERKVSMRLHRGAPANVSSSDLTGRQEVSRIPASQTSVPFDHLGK

[4] = molecular target: T3, Lymphokine-activated killer T-cell-originated protein kinase (Homo sapiens) (UniProt Q96KB5); test: Inhibition of human PBK assessed as enzyme activity at 1 uM using myelin basic protein as substrate preincubated for 20 mins followed by [gamma-33P]-ATP addition and measured after 120 mins by radiometric Hot-SpotSM Kinase assay relative to control
T3 sequence (whole entry): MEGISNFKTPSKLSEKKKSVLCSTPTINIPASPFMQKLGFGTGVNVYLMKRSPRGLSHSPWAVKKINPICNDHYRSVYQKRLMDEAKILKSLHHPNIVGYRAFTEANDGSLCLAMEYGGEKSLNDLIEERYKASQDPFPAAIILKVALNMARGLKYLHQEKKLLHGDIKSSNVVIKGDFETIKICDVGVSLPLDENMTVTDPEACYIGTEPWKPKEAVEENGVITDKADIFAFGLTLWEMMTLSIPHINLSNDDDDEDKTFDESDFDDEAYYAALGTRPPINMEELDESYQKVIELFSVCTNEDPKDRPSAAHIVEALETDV

[5] = molecular target: Dual specificity protein kinase CLK4 (Homo sapiens) (UniProt Q9HAZ1); test: Inhibition of human CLK4 assessed as enzyme activity at 1 uM using myelin basic protein as substrate preincubated for 20 mins followed by [gamma-33P]-ATP addition and measured after 120 mins by radiometric Hot-SpotSM Kinase assay relative to control
Sequence of Dual specificity protein kinase CLK4 (Homo sapiens) (Q9HAZ1 whole entry, looked up): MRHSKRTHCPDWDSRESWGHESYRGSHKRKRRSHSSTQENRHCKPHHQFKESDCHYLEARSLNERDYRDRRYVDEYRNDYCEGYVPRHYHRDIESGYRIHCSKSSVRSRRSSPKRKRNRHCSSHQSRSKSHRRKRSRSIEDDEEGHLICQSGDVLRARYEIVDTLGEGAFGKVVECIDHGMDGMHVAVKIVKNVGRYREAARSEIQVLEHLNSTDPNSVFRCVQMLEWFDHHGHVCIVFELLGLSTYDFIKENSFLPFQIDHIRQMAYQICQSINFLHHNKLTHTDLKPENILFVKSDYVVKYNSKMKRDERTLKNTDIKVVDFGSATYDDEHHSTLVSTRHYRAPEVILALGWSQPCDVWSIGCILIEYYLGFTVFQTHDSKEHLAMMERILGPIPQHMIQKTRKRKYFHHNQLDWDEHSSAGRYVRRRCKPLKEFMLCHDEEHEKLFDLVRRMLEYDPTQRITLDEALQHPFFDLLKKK

Structure (SMILES) | Activity [1] [%] | Activity [2] [%] | Activity [3] [%] | Activity [4] [%] | Activity [5] [%]
C[C@H](Nc1ncnc2nc[nH]c12)c1cc2cccc(Cl)c2c(=O)n1-c1ccccc1 | 96.2 | 97.5 | 90.9 | 102 | 107
CC[C@H](Nc1ncnc2[nH]cnc12)c1nc2cccc(F)c2c(=O)n1-c1ccccc1 | 103 | 96.6 | 92.9 | 105 | 103
CC(C)Oc1ccc(-c2nn([C@@H](C)c3oc4ccc(F)cc4c(=O)c3-c3cccc(F)c3)c3ncnc(N)c23)cc1F [UMBRALISIB] | 98.3 | 93.9 | 39.9 | 105 | 116
